In the experiment the test system is recombinant guanylate cyclase reporter cell line. Kind of experiment: Action on recombinant guanylate cyclase reporter cell line (MEC). It is filed as cell-based. The note with it: in some cases mean values obtained from individual determinations. As for the experimental part: B-2. Action on Recombinant Guanylate Cyclase Reporter Cell Line
The cellular action of the compounds according to the invention is determined on a recombinant guanylate cyclase reporter cell line, as described in F. Wunder et al., Anal. Biochem. 339, 104-112 (2005).
Representative values (MEC=minimal effective concentration) for the compounds according to the invention are shown in the following table (in some cases as mean values obtained from individual determinations): […]

Where a name gives a salt, the structure may show the parent alone.

The values that follow come from patent US8778964B2, “Hydroxy-substituted imidazo[1,2-a]-pyridinecarboxamides and their use” (Bayer Pharma Aktiengesellschaft, priority 2012, dated 2014).

What is called minimal effective concentration is the lowest level tested that produced the effect sought. Regarding `Cc1nc2c(OCc3c(F)cccc3F)cccn2c1C(=O)NC[C@@H]1CCCC[C@H]1O` (racemic) [Example 27, (rac)-trans-8-[(2,6-difluorobenzyl)oxy]-N-[(2-hydroxycyclohexyl)methyl]-2-methylimidazo[1,2-a]pyridine-3-carboxamide], the minimal effective concentration is 0.3 µM. Still for that read-out and setting: the value for `Cc1nc2c(OCc3c(F)cccc3F)cccn2c1C(=O)NCCC(C)O` (racemic) [Example 28, (rac)-8-[(2,6-difluorobenzyl)oxy]-N-(3-hydroxybutyl)-2-methylimidazo[1,2-a]pyridine-3-carboxamide] was 0.65 µM; that for `CCC(O)CNC(=O)c1c(C)nc2c(OCc3c(F)cccc3F)cccn12` (racemic) [Example 30, (rac)-8-[(2,6-difluorobenzyl)oxy]-N-(2-hydroxybutyl)-2-methylimidazo[1,2-a]pyridine-3-carboxamide] was 0.3 µM; that for `CCC(CO)NC(=O)c1c(C)nc2c(OCC3CCCCC3)cccn12` (racemic) [Example 69, (rac)-8-(cyclohexylmethoxy)-N-(1-hydroxybutan-2-yl)-2-methylimidazo[1,2-a]pyridine-3-carboxamide formate] was 0.1 µM. On the same count and under the same terms, the value for `C=CCC(CO)NC(=O)c1c(C)nc2c(OCC3CCCCC3)cccn12` (racemic) [Example 70, (rac)-8-(cyclohexylmethoxy)-N-(1-hydroxypent-4-en-2-yl)-2-methylimidazo[1,2-a]pyridine-3-carboxamide] was 0.1 µM; that for `Cc1nc2c(OCC3CCCCC3)cccn2c1C(=O)N[C@H]1CCC[C@@H]1O` (racemic) [Example 71, (rac)-8-(cyclohexylmethoxy)-N-[trans-2-hydroxycyclopentyl]-2-methylimidazo[1,2-a]-pyridine-3-carboxamide] was 0.1 µM; that for `Cc1nc2c(OCC3CCCCC3)cccn2c1C(=O)N[C@@H]1CCCC[C@H]1O` (racemic) [Example 78, (rac)-8-(cyclohexylmethoxy)-N-[(trans)-2-hydroxycyclohexyl]-2-methylimidazo[1,2-a]-pyridine-3-carboxamide] was 0.3 µM. Take `Cc1nc2c(OCc3c(F)cccc3F)cccn2c1C(=O)NC(CO)CC(F)(F)F` (racemic) [Example 100, rac-8-[(2,6-Difluorobenzyl)oxy]-2-methyl-N-(4,4,4-trifluoro-1-hydroxybutan-2-yl)imidazo[1,2-a]-pyridine-3-carboxamide trifluoroacetate]: the minimal effective concentration was found to be 0.03 µM.

In the case of `Cc1nc2c(OCc3c(F)cccc3F)cccn2c1C(=O)NC(CO)CCC(F)(F)F` (racemic) [Example 101, rac-8-[(2,6-difluorobenzyl)oxy]-2-methyl-N-(5,5,5-trifluoro-1-hydroxypentan-2-yl)-imidazo[1,2-a]pyridine-3-carboxamide trifluoroacetate], the minimal effective concentration worked out at 0.1 µM. As for `Cc1nc2c(OCc3c(F)cccc3F)cccn2c1C(=O)NC(CO)CCCC(F)(F)F` (racemic) [Example 102, rac-8-[(2,6-difluorobenzyl)oxy]-2-methyl-N-(6,6,6-trifluoro-1-hydroxyhexan-2-yl)-imidazo[1,2-a]pyridine-3-carboxamide trifluoroacetate], the minimal effective concentration (trifluoroacetate) came out at 0.1 µM.

As for `Cc1nc2c(OCc3c(F)cccc3F)cccn2c1C(=O)NC(CO)c1ccc(F)cc1` (racemic) [Example 103, rac-8-[(2,6-difluorobenzyl)oxy]-N-[1-(4-fluorophenyl)-2-hydroxyethyl]-2-methylimidazo-[1,2-a]pyridine-3-carboxamide trifluoroacetate], the minimal effective concentration worked out at 0.1 µM. On the same count and under the same terms, the result for `Cc1nc2c(OCc3c(F)cccc3F)cccn2c1C(=O)N[C@@H](CO)c1ccccc1` (racemic) [Example 104, rac-8-[(2,6-difluorobenzyl)oxy]-N-[(1R)-2-hydroxy-1-phenylethyl]-2-methylimidazo[1,2-a]pyridine-3-carboxamide trifluoroacetate] reads 0.1 µM; that for `Cc1nc2c(OCc3c(F)cccc3F)cccn2c1C(=O)NCC(O)C(F)(F)F` (racemic) [Example 106, rac-8-[(2,6-difluorobenzyl)oxy]-2-methyl-N-(3,3,3-trifluoro-2-hydroxypropyl)imidazo[1,2-a]pyridine-3-carboxamide trifluoroacetate], 0.3 µM; that for `Cc1nc2c(OCc3c(F)cccc3F)cccn2c1C(=O)NC(CO)C(F)(F)F` (racemic) [Example 110, rac-8-[(2,6-Difluorobenzyl)oxy]-2-methyl-N-(1,1,1-trifluoro-3-hydroxypropan-2-yl)imidazo[1,2-a]pyridine-3-carboxamide], 0.3 µM.

For `Cc1nc2c(OCc3c(F)cccc3F)cccn2c1C(=O)NC(CO)CC(F)(F)F` (racemic) [Example 113, rac-8-[(2,6-Difluorobenzyl)oxy]-2-methyl-N-(4,4,4-trifluoro-1-hydroxybutan-2-yl)imidazo[1,2-a]-pyridine-3-carboxamide], the minimal effective concentration was determined as 0.03 µM. Still for that read-out and setting: the value for `Cc1nc2c(OCc3c(F)cccc3F)cccn2c1C(=O)NC(CO)CCCC(F)(F)F` (racemic) [Example 114, rac-8-[(2,6-difluorobenzyl)oxy]-2-methyl-N(6,6,6-trifluoro-1-hydroxyhexan-2-yl)imidazo[1,2-a]pyridine-3-carboxamide] was 0.03 µM; that for `Cc1nc2c(OCc3c(F)cccc3F)cccn2c1C(=O)NC(CO)c1ccccn1` (racemic) [Example 119, rac-8-[(2,6-difluorobenzyl)oxy]-N-[2-hydroxy-1-(pyridin-2-yl)ethyl]-2-methylimidazo[1,2-a]-pyridine-3-carboxamide] was 0.3 µM; that for `Cc1nc2c(OCc3c(F)cccc3F)cccn2c1C(=O)NC(CO)c1ccc(S(C)(=O)=O)cc1` (racemic) [Example 120, rac-8-[(2,6-difluorobenzyl)oxy]-N-{2-hydroxy-1-[4-(methylsulphonyl)phenyl]ethyl}-2-methylimidazo[1,2-a]pyridine-3-carboxamide] was 1 µM. Regarding `Cc1nc2c(OCc3c(F)cccc3F)cccn2c1C(=O)NC(CO)c1cccnc1` (racemic) [Example 124, rac-8-[(2,6-Difluorobenzyl)oxy]-N-[2-hydroxy-1-(pyridin-3-yl)ethyl]-2-methylimidazo[1,2-a]-pyridine-3-carboxamide], the minimal effective concentration was 0.3 µM.

In the case of `Cc1nc2c(OCc3c(F)cccc3F)cccn2c1C(=O)NC(CC(F)(F)F)C(C)(C)O` (racemic) [Example 148, rac-8-[(2,6-Difluorobenzyl)oxy]-2-methyl-N-(1,1,1-trifluoro-4-hydroxy-4-methylpentan-3-yl)-imidazo[1,2-a]pyridine-3-carboxamide], the minimal effective concentration turned out to be 0.03 µM. Still for that read-out and setting: the result for `Cc1nc2c(OCc3c(F)cccc3F)cccn2c1C(=O)NC(CCC(F)(F)F)C(C)(C)O` (racemic) [Example 149, rac-8-[(2,6-difluorobenzyl)oxy]-2-methyl-N-(6,6,6-trifluoro-2-hydroxy-2-methylhexan-3-yl)imidazo[1,2-a]pyridine-3-carboxamide] reads 0.1 µM; that for `Cc1nc2c(OCc3c(F)cccc3F)cccn2c1C(=O)NC(CCCC(F)(F)F)C(C)(C)O` (racemic) [Example 150, rac-8-[(2,6-difluorobenzyl)oxy]-2-methyl-N-(7,7,7-trifluoro-2-hydroxy-2-methylheptan-3-yl)imidazo[1,2-a]pyridine-3-carboxamide], 0.03 µM. On to `Cc1nc2c(OCc3c(F)cccc3F)cccn2c1C(=O)NC(c1ccc(Cl)cc1)C(C)(C)O` (racemic) [Example 151, rac-N-[1-(4-chlorophenyl)-2-hydroxy-2-methylpropyl]-8-[(2,6-difluorobenzyl)oxy]-2-methylimidazo[1,2-a]pyridine-3-carboxamide], for which the minimal effective concentration is 0.3 µM. Turning to `Cc1nc2c(OCc3c(F)cccc3F)cccn2c1C(=O)NC(c1ccc(F)cc1)C(C)(C)O` (racemic) [Example 152, rac-8-[(2,6-difluorobenzyl)oxy]-N-[1-(4-fluorophenyl)-2-hydroxy-2-methylpropyl]-2-methylimidazo[1,2-a]pyridine-3-carboxamide], the minimal effective concentration worked out at 0.3 µM. Still for that read-out and setting: the value for `CCOCC(CO)NC(=O)c1c(C)nc2c(OCc3c(F)cccc3F)cccn12` (racemic) [Example 160, rac-8-[(2,6-Difluorobenzyl)oxy]-N-(1-ethoxy-3-hydroxypropan-2-yl)-2-methylimidazo[1,2-a]-pyridine-3-carboxamide] was 0.3 µM. In the case of `CCCOCC(CO)NC(=O)c1c(C)nc2c(OCc3c(F)cccc3F)cccn12` (racemic) [Example 162, rac-8-[(2,6-Difluorobenzyl)oxy]-N-(1-hydroxy-3-propoxypropan-2-yl)-2-methylimidazo[1,2-a]-pyridine-3-carboxamide], the minimal effective concentration amounted to 0.3 µM. Still for that read-out and setting: the value for `Cc1nc2c(OCc3c(F)cccc3F)cccn2c1C(=O)NC(CO)COCC(C)C` (racemic) [Example 163, rac-8-[(2,6-Difluorobenzyl)oxy]-N-(1-hydroxy-3-isobutoxypropan-2-yl)-2-methylimidazo[1,2-a]-pyridine-3-carboxamide] was 1 µM; that for `Cc1cc(OCCC(C(F)(F)F)C(F)(F)F)c2nc(C)c(C(=O)NC(CCCC(F)(F)F)C(C)(C)O)n2c1` (racemic) [Example 170, rac-2,6-Dimethyl-N-(7,7,7-trifluoro-2-hydroxy-2-methylheptan-3-yl)-8-[4,4,4-trifluoro-3-(trifluoromethyl)butoxy]imidazo[1,2-a]pyridine-3-carboxamide] was 3 µM.
